Measurements from paper PMC8213057, “Targeting ALK2: An Open Science Approach to Developing Therapeutics for the Treatment of Diffuse Intrinsic Pontine Glioma” (Journal of Medicinal Chemistry, 2020).

Legend:
CLK4 = CLK4 (Homo sapiens, UniProt Q9HAZ1); test: biochemical; conditions: read-out: % enzyme activity, 1 μM; Run 1, Run 2
MYLK4 = biological target: T1, MYLK4 (Homo sapiens, UniProt Q86YV6); conditions: 1 μM; Run 1, Run 2
T1 sequence (Q86YV6 1-388): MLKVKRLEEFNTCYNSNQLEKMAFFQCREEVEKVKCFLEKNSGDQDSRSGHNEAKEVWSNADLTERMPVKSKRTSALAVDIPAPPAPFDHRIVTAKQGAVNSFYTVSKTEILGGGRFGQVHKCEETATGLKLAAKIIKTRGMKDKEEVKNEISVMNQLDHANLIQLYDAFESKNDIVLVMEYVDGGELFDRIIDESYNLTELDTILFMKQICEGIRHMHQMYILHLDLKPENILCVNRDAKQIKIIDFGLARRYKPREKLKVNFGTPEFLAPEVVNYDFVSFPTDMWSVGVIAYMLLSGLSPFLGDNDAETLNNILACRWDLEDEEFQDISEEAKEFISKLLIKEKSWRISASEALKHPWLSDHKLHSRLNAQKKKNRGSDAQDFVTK

FLT1/VEGFR1 = FLT1/VEGFR1 (Homo sapiens, UniProt P17948); test: biochemical; conditions: read-out: % enzyme activity, 1 μM; Run 1, Run 2
PKCtheta = PKCtheta (Homo sapiens, UniProt Q04759); test: biochemical; conditions: read-out: % enzyme activity, 1 μM; Run 1, Run 2
HIPK2 = HIPK2 (Homo sapiens, UniProt Q9H2X6); test: biochemical; conditions: read-out: % enzyme activity, 1 μM; Run 1, Run 2
IRR/INSRR = IRR/INSRR (Homo sapiens, UniProt P14616); conditions: 1 μM; Run 1, Run 2
MAK = biological target: T2, MAK (Homo sapiens, UniProt P20794); conditions: 1 μM; Run 1, Run 2
T2 sequence (P20794 1-623): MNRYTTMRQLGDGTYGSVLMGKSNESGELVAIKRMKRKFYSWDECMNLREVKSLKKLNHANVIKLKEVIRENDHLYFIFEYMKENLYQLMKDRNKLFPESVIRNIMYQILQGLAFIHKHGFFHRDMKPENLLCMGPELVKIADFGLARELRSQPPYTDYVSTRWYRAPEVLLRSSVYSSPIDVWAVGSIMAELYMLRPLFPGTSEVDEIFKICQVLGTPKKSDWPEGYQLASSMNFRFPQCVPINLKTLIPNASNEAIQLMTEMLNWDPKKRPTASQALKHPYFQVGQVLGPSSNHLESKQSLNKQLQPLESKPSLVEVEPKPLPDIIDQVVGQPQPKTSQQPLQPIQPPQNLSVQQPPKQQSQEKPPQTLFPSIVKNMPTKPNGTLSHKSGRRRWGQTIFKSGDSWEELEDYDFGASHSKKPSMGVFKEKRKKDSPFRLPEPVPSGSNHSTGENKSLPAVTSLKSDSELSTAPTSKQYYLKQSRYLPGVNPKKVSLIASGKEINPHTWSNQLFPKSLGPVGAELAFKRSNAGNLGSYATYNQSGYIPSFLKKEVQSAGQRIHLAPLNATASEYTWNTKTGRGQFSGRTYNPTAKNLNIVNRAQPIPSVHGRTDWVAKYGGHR

IKKb/IKBKB = biological target: T3, IKKb/IKBKB (Homo sapiens, UniProt O14920); conditions: 1 μM; Run 1, Run 2
T3 sequence (O14920 1-756): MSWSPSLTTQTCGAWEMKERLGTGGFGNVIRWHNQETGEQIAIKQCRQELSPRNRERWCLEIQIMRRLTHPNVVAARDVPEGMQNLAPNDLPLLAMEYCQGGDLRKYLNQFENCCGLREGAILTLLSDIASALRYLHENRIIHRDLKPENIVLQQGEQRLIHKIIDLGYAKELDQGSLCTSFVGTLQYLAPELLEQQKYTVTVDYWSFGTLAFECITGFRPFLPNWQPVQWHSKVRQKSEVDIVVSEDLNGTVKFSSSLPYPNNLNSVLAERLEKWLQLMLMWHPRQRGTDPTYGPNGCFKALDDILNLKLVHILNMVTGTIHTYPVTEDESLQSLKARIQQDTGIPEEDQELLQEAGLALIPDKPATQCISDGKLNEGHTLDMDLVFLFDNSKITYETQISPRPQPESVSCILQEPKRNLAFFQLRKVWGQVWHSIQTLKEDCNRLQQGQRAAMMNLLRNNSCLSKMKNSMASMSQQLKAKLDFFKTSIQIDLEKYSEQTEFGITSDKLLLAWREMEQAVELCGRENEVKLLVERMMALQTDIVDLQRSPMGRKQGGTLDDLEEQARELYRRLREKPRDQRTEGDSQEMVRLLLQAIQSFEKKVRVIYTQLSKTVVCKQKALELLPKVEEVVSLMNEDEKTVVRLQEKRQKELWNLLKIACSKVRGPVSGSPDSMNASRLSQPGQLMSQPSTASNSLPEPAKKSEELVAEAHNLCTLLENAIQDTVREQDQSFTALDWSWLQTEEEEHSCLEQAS

MLK2/MAP3K10 = MLK2/MAP3K10 (Homo sapiens, UniProt Q02779); test: biochemical; conditions: read-out: % enzyme activity, 1 μM; Run 1, Run 2
STK21/CIT = STK21/CIT (Homo sapiens, UniProt O14578); conditions: 1 μM; Run 1, Run 2
HIPK1 = HIPK1 (Homo sapiens, UniProt Q86Z02); conditions: 1 μM; Run 1, Run 2

CLK4, sequence (Q9HAZ1 whole entry): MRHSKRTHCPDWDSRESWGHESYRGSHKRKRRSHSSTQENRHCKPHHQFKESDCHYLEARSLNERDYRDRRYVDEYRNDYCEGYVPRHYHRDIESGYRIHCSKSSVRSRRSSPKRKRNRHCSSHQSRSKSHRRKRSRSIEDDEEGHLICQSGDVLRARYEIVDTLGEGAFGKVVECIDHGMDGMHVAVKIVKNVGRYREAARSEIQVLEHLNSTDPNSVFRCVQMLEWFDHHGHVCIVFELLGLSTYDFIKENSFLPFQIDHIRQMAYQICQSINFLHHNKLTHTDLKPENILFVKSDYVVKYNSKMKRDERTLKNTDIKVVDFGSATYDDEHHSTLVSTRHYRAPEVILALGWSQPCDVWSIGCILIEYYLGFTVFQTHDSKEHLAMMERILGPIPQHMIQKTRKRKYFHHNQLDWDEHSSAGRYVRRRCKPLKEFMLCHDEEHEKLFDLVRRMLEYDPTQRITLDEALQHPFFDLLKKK
MLK2/MAP3K10, sequence (Q02779 whole entry): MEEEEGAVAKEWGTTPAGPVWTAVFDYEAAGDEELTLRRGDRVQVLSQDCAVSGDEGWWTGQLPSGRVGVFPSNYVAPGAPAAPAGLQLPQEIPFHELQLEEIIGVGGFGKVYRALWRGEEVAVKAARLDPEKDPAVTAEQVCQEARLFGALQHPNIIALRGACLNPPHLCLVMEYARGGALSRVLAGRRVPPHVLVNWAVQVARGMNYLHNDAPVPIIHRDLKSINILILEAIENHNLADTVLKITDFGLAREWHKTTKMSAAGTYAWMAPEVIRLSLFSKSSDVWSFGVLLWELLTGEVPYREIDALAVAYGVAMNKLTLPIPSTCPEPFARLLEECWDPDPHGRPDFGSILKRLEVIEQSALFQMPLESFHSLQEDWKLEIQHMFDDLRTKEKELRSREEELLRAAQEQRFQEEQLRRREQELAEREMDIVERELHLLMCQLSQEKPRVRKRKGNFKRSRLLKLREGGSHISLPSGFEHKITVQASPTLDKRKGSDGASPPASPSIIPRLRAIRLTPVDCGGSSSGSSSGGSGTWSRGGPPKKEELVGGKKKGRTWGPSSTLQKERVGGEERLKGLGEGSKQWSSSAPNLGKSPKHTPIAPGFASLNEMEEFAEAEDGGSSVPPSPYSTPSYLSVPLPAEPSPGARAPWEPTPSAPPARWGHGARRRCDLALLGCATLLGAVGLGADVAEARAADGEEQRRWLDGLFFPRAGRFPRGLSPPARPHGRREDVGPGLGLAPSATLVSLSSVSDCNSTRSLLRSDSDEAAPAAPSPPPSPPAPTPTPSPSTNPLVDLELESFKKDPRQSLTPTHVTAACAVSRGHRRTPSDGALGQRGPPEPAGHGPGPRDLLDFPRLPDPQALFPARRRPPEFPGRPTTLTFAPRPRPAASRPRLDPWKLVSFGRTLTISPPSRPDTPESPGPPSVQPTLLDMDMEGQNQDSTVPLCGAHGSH
HIPK2, sequence (Q9H2X6 whole entry): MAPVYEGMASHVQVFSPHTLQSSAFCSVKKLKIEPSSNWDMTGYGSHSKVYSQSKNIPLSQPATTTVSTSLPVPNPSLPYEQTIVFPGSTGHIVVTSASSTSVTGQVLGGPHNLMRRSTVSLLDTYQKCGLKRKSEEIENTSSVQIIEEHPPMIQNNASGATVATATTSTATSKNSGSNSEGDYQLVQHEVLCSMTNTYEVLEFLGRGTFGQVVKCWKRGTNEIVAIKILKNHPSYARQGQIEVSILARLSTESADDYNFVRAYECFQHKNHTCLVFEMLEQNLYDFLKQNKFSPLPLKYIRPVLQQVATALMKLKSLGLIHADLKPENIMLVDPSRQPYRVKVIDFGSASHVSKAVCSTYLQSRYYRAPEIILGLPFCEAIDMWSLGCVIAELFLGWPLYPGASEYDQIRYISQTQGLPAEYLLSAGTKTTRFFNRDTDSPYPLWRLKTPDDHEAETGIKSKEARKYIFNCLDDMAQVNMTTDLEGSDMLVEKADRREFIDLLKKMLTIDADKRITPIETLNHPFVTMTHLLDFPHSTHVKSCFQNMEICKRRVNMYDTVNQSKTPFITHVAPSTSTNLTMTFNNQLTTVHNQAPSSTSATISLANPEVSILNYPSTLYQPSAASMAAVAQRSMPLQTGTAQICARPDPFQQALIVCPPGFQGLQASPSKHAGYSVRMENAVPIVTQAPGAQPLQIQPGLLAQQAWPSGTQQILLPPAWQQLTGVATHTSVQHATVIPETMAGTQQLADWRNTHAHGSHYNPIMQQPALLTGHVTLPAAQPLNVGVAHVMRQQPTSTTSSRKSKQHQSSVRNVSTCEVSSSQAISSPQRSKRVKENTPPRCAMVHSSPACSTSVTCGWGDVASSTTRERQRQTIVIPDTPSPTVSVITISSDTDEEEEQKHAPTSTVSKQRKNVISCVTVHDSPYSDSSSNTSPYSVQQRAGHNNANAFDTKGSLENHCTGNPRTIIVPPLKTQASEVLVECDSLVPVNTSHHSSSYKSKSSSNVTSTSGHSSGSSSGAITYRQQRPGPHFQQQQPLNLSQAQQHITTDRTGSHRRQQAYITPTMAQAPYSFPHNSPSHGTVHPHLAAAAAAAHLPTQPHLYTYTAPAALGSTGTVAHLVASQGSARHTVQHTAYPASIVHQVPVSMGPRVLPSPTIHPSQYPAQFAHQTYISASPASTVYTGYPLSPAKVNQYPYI
STK21/CIT, sequence (O14578 whole entry): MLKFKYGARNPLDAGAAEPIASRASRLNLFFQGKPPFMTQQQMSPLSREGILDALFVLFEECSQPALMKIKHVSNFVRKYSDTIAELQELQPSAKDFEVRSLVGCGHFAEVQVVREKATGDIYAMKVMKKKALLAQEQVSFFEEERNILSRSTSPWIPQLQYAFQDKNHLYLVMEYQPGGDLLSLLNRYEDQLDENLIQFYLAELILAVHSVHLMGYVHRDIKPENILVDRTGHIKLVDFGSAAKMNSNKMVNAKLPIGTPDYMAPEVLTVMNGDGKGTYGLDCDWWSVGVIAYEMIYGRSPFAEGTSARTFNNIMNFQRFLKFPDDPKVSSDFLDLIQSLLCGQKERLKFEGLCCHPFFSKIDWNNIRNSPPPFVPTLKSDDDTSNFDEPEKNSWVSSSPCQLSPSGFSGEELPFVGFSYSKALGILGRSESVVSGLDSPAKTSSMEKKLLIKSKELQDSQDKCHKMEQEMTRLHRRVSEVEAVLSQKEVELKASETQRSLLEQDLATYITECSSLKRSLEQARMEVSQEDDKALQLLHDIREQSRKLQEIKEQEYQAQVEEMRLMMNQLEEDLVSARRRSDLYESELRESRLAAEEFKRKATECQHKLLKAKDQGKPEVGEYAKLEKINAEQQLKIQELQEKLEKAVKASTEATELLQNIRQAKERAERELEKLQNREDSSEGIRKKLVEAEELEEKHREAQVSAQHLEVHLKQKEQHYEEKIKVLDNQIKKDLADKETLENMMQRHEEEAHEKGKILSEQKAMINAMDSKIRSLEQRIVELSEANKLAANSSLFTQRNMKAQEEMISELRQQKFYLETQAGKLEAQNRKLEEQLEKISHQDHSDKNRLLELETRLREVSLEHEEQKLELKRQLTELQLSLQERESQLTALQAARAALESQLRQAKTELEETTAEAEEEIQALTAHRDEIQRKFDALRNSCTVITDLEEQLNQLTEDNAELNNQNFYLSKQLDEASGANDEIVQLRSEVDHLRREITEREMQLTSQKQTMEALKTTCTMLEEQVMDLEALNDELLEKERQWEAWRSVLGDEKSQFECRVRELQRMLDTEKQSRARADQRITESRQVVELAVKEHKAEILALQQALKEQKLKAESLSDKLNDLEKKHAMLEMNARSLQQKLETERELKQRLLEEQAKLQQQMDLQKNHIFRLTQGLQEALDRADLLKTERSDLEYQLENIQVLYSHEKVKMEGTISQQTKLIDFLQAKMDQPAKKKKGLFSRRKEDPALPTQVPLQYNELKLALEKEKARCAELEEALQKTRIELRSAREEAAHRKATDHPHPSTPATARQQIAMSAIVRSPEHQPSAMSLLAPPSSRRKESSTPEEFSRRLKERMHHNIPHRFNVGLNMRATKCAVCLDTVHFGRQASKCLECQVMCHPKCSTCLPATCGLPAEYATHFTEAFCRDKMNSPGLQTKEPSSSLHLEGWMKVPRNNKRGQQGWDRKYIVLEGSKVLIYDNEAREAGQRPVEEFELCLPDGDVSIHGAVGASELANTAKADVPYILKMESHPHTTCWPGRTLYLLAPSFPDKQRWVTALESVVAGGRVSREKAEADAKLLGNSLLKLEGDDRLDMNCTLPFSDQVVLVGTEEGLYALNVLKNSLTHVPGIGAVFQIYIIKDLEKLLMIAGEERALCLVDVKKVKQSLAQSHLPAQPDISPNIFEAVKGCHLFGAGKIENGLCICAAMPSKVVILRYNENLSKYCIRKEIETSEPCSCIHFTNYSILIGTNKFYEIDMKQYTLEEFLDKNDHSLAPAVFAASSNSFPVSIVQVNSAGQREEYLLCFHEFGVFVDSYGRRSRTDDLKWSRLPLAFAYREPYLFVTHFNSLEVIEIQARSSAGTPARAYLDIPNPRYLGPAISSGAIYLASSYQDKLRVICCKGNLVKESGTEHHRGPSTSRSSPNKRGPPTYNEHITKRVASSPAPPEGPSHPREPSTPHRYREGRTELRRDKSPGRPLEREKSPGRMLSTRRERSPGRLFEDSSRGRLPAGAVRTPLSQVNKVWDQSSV

Row | Structure (SMILES) | remaining activity at 1 µM (CLK4) | % enzyme activity (MYLK4) | remaining activity at 1 µM (FLT1/VEGFR1) | remaining activity at 1 µM (PKCtheta) | remaining activity at 1 µM (HIPK2) | hERG inhibition (hERG) | % enzyme activity (IRR/INSRR) | % enzyme activity (MAK) | % enzyme activity (IKKb/IKBKB) | remaining activity at 1 µM (MLK2/MAP3K10) | % enzyme activity (STK21/CIT) | % enzyme activity (HIPK1) | IC50 (hERG)
1 | COc1cc(-c2cncc(-c3ccc(N4C[C@@H](C)N(C)[C@@H](C)C4)cc3)c2C)cc(F)c1C(N)=O [Compound 26c, 2-Fluoro-6-methoxy-4-(4-methyl-5-(4-((3R,5S)-3,4,5-trimethylpiperazin-1-yl)phenyl)pyridin-3-yl)benzamide] | 92.6% | 102.67% | 108% | 87% | 103% | 18.8 µM | 113.76% | 100.81% | 100.59% | 98.5% | 84.97% | 96.64% | 
2 | COc1cc(-c2cncc(-c3ccc(N4CCN(C)CC4)cc3)c2C)cc(F)c1C(N)=O [Compound 26a, 2-Fluoro-6-methoxy-4-(4-methyl-5-(4-(4-methylpiperazin-1-yl)phenyl)pyridin-3-yl)benzamide] | 88.9% | 95.79% | 107% | 85.1% | 99.8% | > 30 µM | 99.85% | 98.28% | 101.39% | 86.4% | 84.42% | 102.36% | >30 µM
